Measured values: patent publication US20090093460A1, “Compositions” (AstraZeneca AB, priority 2003, published 2009)
Where two headings read alike, the source gives them in different places.

Columns and labels:
Adrenergic α1B = target: T1, Adrenergic α1B (Rattus norvegicus, UniProt P15823); experiment: Radioligand binding 203200 Adrenergic α1B
T1 construct: 203200
T1 sequence (P15823 1-515): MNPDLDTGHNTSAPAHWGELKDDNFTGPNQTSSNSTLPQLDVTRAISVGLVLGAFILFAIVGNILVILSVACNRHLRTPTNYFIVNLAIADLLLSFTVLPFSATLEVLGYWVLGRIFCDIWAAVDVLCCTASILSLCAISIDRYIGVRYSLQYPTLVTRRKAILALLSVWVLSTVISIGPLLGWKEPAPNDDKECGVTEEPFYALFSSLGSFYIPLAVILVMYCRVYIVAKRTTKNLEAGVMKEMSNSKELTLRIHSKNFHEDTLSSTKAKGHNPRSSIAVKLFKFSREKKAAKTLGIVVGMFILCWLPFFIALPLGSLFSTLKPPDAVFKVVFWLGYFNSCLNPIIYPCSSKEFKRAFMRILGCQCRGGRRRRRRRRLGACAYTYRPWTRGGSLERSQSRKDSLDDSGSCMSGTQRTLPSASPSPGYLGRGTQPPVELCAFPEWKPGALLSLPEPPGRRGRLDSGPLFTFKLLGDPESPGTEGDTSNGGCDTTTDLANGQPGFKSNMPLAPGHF
Description: (§1) Receptor binding methods, (α-adrenergic subtype specific, are provided below.

Adrenergic α1D = target: T2, Adrenergic α1D (Homo sapiens, UniProt P25100); experiment: Radioligand binding 203400 Adrenergic α1D
T2 construct: host or cells: HEK-293 cells
T2 sequence (P25100 1-572): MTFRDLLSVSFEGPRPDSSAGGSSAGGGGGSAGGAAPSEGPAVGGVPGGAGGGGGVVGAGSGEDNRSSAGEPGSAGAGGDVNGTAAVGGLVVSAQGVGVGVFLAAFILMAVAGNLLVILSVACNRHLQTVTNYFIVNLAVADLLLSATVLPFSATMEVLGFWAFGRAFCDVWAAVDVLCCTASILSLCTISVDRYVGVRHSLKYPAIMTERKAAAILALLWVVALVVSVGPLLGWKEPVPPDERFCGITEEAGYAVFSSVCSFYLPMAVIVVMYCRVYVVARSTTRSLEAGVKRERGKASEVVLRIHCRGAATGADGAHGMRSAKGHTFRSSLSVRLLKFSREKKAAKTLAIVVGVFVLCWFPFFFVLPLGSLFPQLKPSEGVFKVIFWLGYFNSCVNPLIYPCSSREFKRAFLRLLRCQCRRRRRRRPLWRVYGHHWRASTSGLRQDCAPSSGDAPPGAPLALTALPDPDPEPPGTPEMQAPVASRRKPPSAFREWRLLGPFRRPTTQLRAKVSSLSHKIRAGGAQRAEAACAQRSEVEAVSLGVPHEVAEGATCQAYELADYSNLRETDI
Description: as §1

Adrenergic α2C = target: T3, Adrenergic α2C (Homo sapiens, UniProt P18825); experiment: Radioligand binding Adrenergic α2C
T3 sequence (P18825 1-462): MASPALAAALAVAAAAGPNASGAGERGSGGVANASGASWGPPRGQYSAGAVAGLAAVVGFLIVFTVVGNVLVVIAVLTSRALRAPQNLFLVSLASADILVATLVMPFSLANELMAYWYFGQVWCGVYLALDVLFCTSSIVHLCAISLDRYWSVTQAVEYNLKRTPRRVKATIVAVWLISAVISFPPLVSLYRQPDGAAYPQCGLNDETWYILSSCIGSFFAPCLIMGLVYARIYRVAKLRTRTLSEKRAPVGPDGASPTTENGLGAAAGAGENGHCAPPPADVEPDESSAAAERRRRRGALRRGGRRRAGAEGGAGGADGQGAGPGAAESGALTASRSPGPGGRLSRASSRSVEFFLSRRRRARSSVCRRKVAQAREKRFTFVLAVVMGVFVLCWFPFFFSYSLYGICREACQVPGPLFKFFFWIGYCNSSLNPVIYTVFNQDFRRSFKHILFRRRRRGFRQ

Brain exposure in rats = assay type: in vivo; conditions: rat; for Kp at 1 h: brain
Description: Brain exposure was measured in rats. For concentrations of 11-piperazin-1-yldibenzo[b,f][1,4]thiazepine in brain, rats were dosed either po or iv (n=3 per dose route). At one hour after compound administration blood and brain samples were obtained and then processed for analysis using HPLC/MS to measure concentrations of 11-piperazin-1-yldibenzo[b,f][ 1,4]thiazepine.

5HT Transporter = target: T4, 5HT Transporter (Homo sapiens, UniProt P31645); experiment: PET scans of primate subjects, 5HT Transporter occupancy; assay type: in vivo; conditions: preliminary PET scans
T4 construct: from tissue; host or cells: brain of living primate subjects (PET)
T4 sequence (P31645 whole entry, species assumed): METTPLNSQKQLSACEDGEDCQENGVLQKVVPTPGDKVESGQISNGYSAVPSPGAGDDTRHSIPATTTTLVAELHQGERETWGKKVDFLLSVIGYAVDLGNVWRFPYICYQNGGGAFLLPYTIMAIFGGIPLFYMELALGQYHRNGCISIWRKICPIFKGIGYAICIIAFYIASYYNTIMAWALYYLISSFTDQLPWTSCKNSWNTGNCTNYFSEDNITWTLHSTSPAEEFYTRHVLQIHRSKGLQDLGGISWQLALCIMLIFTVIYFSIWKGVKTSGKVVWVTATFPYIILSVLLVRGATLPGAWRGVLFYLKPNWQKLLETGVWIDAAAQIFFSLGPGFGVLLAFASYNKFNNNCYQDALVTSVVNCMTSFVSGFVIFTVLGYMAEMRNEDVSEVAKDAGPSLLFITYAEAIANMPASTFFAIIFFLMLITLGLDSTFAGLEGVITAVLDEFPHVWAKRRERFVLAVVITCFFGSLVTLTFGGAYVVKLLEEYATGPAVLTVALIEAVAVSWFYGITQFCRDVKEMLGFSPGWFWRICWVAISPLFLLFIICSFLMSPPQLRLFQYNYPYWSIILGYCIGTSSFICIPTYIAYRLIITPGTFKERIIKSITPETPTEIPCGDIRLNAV
Description: (§2) The compound of Formula I is a dibenzothiazepine that has shown antidopaminergic activity.

5-HT1A receptors = target: T5, 5-HT1A receptors (Homo sapiens, UniProt P08908); experiment: PET scans of primate subjects, 5-HT1A occupancy; assay type: in vivo; parameters: from tissue; host or cells: brain of living primate subjects (PET); conditions: preliminary PET scans
T5 sequence (P08908 1-422): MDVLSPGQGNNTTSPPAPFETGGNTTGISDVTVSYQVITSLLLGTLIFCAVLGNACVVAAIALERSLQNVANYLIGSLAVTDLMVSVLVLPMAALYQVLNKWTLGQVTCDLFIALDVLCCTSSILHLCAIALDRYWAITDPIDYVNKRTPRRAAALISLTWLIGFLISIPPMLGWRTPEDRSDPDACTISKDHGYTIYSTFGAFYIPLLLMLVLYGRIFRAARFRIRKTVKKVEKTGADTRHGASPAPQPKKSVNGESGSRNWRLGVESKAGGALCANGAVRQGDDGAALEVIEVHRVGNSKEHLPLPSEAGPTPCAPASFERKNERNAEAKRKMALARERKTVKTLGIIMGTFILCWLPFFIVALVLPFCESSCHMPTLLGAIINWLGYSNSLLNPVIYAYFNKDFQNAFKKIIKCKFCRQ
Description: as §2

## c1ccc2c(c1)N=C(N1CCNCC1)c1ccccc1S2 [11-piperazin-1-yldibenzo[b,f][1,4]thiazepine]
Adrenergic α1B
  n: 1.1 ± 0.024
Adrenergic α1B; 0.1 μM
  inhibition at 0.1 µM: 50%
Adrenergic α1B; read-out: ki
  Ki: 75 ± 9 nM
Adrenergic α1B; α1B, read-out: Affinity
  Ki: 75 nM
Adrenergic α1D
  IC50: 377 ± 49 nM
  n: 0.984 ± 0.111
Adrenergic α1D; 0.3 μM
  inhibition at 0.3 µM: 53%
Adrenergic α1D; read-out: ki
  Ki: 185 ± 24 nM
Adrenergic α1D; α1D, read-out: Affinity
  Ki: 185 nM
Adrenergic α2C
  IC50: 5640 ± 1010 nM
  n: 1.1 ± 0.079
Adrenergic α2C; 10 μM
  inhibition at 10 µM: 58%
Adrenergic α2C; read-out: ki
  Ki: 820 ± 146 nM
Adrenergic α2C; α2C, read-out: Affinity
  Ki: 820 nM
Brain exposure in rats; 30 umol/kg, one hour after 30 μmol/kg po, read-out: brain/plasma exposure ratio
  Kp at 1 h: 3.4
Brain exposure in rats; after iv dosing, read-out: brain:plasma concentration ratio
  Kp at 1 h: 4.6
Brain exposure in rats; plasma, 30 μmol/kg, heading: average concentration in plasma, one hour after 30 μmol/kg po
  concentration at 1 h: 658 nM
5HT Transporter
  transporter occupancy by PET: occupies
5-HT1A receptors
  receptor occupancy by PET: occupies
